The values that follow come from patent US11739101B2, “Bifunctional degraders of hematopoietic progenitor kinase and therapeutic uses thereof” (Nurix Therapeutics, Inc., priority 2020, dated 2023).

SMILES strings stand for the structures.

As usually defined, the Dmax is the largest share of the target that was removed. Read a low Dmax as a partial loss of target.

The target in this assay is T1, HPK1 (Homo sapiens, UniProt Q92918).
T1 construct: A HiBiT tag was introduced by CRISPR on the N terminus of HPK1 in Jurkat cells; host or cells: Jurkat (ATCC TIB-152), monoclonal CRISPR HiBiT knock-in line
T1 sequence (Q92918 whole entry): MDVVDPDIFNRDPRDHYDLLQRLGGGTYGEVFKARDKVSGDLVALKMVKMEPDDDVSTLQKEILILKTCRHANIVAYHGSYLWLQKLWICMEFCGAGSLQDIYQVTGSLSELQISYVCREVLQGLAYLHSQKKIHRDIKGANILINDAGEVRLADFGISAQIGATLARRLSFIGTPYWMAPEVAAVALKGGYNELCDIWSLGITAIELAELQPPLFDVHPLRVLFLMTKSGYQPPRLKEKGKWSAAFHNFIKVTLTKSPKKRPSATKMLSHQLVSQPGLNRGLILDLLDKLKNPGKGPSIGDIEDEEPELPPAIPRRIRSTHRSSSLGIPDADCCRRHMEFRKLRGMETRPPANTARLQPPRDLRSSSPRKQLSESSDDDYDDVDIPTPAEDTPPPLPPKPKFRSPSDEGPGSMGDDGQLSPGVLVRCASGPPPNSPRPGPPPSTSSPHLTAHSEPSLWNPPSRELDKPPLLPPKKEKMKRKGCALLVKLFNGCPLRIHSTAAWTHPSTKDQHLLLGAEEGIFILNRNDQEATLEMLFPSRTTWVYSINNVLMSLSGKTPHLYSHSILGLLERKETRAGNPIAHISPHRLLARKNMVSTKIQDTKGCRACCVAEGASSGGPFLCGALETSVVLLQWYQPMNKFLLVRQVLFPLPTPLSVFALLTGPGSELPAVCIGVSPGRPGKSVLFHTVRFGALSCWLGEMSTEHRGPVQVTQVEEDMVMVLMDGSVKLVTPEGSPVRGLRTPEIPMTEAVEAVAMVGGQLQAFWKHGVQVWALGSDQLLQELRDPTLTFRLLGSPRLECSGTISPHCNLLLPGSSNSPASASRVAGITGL
Kind of assay: HPK1 Cellular HiBiT Degradation Assay. The class given is cell-based. As to conditions: HiBiT-tagged HPK1 Jurkat cells, 24 hours, 10 uM to 0.1 nM; Dmax = 100 minus lowest % HPK1 remaining vs DMSO vehicle. An outline of the steps:
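Dmax is derived from four-parameter curves of % HPK1 remaining, as 100 minus the lowest value, normalized to DMSO-treated cells with parental Jurkat background subtracted. HiBiT-HPK1 knock-in Jurkat cells got compound for 24 hours (final 10 uM to 0.1 nM, 11 points) before lytic HiBiT luminescence. Cytotoxicity was checked on parallel CellTiter-Glo plates.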
In turn, `Cc1cc(F)c(Nc2nc(-c3ccc4c(c3)N([C@H]3C[C@@H](N5CCCCC5)C3)C(=O)C43CCN(C(=O)CN4CCN(CC(=O)N[C@H](C(=O)N5C[C@H](O)C[C@H]5C(=O)N[C@@H](C)c5ccc(-c6scnc6C)cc5)C(C)(C)C)CC4)CC3)cc3ncn(C(C)C)c23)cc1C(=O)NC(C)C` [Example 18, (2S,4R)-1-((S)-2-(2-(4-(2-(6-(4-((2-fluoro-5-(isopropylcarbamoyl)-4-methylphenyl)amino)-3-isopropyl-3H-imidazo[4,5-c]pyridin-6-yl)-2-oxo-1-((1s,3s)-3-(piperidin-1-yl)cyclobutyl)spiro[indoline-3,4′-piperidin]-1′-yl)-2-oxoethyl)piperazin-1-yl)acetamido)-3,3-dimethylbutanoyl)-4-hydroxy-N—((S)-1-(4-(4-methylthiazol-5-yl)phenyl)ethyl)pyrrolidine-2-carboxamide] registered a Dmax of 45 to 65%.

The compound `Cc1cc(F)c(Nc2nc(-c3ccc4c(c3)N([C@H]3C[C@@H](N5CCCCC5)C3)C(=O)C43CCN(C(=O)C[C@H]4CC[C@H](Nc5cccc6c5C(=O)N(C5CCC(=O)NC5=O)C6=O)CC4)CC3)cc3ncn(C(C)C)c23)cc1C(=O)NC(C)C` (stereo partly drawn) [Example 80, 5-((6-(1′-(2-((1R,4R)-4-((2-(2,6-dioxopiperidin-3-yl)-1,3-dioxoisoindolin-4-yl)amino)cyclohexyl)acetyl)-2-oxo-1-((1s,3s)-3-(piperidin-1-yl)cyclobutyl)spiro[indoline-3,4′-piperidin]-6-yl)-3-isopropyl-3H-imidazo[4,5-c]pyridin-4-yl)amino)-4-fluoro-N-isopropyl-2-methylbenzamide] returned a Dmax of 45 to 65%. As to `Cc1cc(F)c(Nc2nc(-c3ccc4c(c3)N([C@H]3C[C@@H](N5CCCCC5)C3)C(=O)C43CCN(C(=O)c4ccc(S(=O)(=O)N5CCN(c6ccc7c(c6)C(=O)N(C6CCC(=O)NC6=O)C7=O)CC5)cc4)CC3)cc3ncn(C(C)C)c23)cc1C(=O)NC(C)C` (stereo partly drawn) [Example 58, 5-[(6-{1′-[4-({4-[2-(2,6-dioxopiperidin-3-yl)-1,3-dioxo-2,3-dihydro-1H-isoindol-5-yl]piperazin-1-yl}sulfonyl)benzoyl]-2-oxo-1-[(1s,3s)-3-(piperidin-1-yl)cyclobutyl]-1,2-dihydrospiro[indole-3,4′-piperidin]-6-yl}-3-(propan-2-yl)-3H-imidazo[4,5-c]pyridin-4-yl)amino]-4-fluoro-2-methyl-N-(propan-2-yl)benzamide], the Dmax was < 45%. For `Cc1cc(F)c(Nc2nc(-c3ccc4c(c3)N([C@H]3C[C@@H](N5CCCCC5)C3)C(=O)C43CCN(C(=O)CCCCCCCC(=O)N[C@H](C(=O)N4C[C@H](O)C[C@H]4C(=O)N[C@@H](C)c4ccc(-c5scnc5C)cc4)C(C)(C)C)CC3)cc3ncn(C(C)C)c23)cc1C(=O)NC(C)C` [Example 10, (2S,4R)-1-((S)-2-(9-(6-(4-((2-fluoro-5-(isopropylcarbamoyl)-4-methylphenyl)amino)-3-isopropyl-3H-imidazo[4,5-c]pyridin-6-yl)-2-oxo-1-((1s,3s)-3-(piperidin-1-yl)cyclobutyl)spiro[indoline-3,4′-piperidin]-1′-yl)-9-oxononanamido)-3,3-dimethylbutanoyl)-4-hydroxy-N—((S)-1-(4-(4-methylthiazol-5-yl)phenyl)ethyl)pyrrolidine-2-carboxamide], the Dmax was > 65%. With `Cc1cc(F)c(Nc2nc(-c3ccc4c(c3)N([C@H]3C[C@@H](N5CCCCC5)C3)C(=O)C43CCN(C(=O)CN4CCC(CCCCC(=O)N[C@H](C(=O)N5C[C@H](O)C[C@H]5C(=O)N[C@@H](C)c5ccc(-c6scnc6C)cc5)C(C)(C)C)CC4)CC3)cc3ncn(C(C)C)c23)cc1C(=O)NC(C)C` [Example 19, (2S,4R)-1-((S)-2-(5-(1-(2-(6-(4-((2-fluoro-5-(isopropylcarbamoyl)-4-methylphenyl)amino)-3-isopropyl-3H-imidazo[4,5-c]pyridin-6-yl)-2-oxo-1-((1s,3s)-3-(piperidin-1-yl)cyclobutyl)spiro[indoline-3,4′-piperidin]-1′-yl)-2-oxoethyl)piperidin-4-yl)pentanamido)-3,3-dimethylbutanoyl)-4-hydroxy-N—((S)-1-(4-(4-methylthiazol-5-yl)phenyl)ethyl)pyrrolidine-2-carboxamide], the Dmax was < 45%.

As to `Cc1cc(F)c(Nc2nc(-c3ccc4c(c3)N([C@H]3C[C@@H](N5CCCCC5)C3)C(=O)C43CCN(C(=O)c4ccc(OC5CCN(c6cccc7c6C(=O)N(C6CCC(=O)NC6=O)C7=O)CC5)cc4)CC3)cc3ncn(C(C)C)c23)cc1C(=O)NC(C)C` (stereo partly drawn) [Example 63, 5-{[6-(1′-{4-[(1-{2-[2,6-dioxopiperidin-3-yl]-1,3-dioxo-2,3-dihydro-1H-isoindol-4-yl}piperidin-4-yl)oxy]benzoyl}-2-oxo-1-[(1s,3s)-3-(piperidin-1-yl)cyclobutyl]-1,2-dihydrospiro[indole-3,4′-piperidin]-6-yl)-3-(propan-2-yl)-3H-imidazo[4,5-c]pyridin-4-yl]amino}-4-fluoro-2-methyl-N-(propan-2-yl)benzamide], the Dmax is > 65%. In the case of `Cc1cc(F)c(Nc2nc(-c3ccc4c(c3)N([C@H]3C[C@@H](N5CCCCC5)C3)C(=O)C43CCN(C(=O)CCCCCCCNc4ccc5c(c4)C(=O)N(C4CCC(=O)NC4=O)C5=O)CC3)cc3ncn(C(C)C)c23)cc1C(=O)NC(C)C` (stereo partly drawn) [Example 3, 5-((6-(1′-(8-((2-(2,6-dioxopiperidin-3-yl)-1,3-dioxoisoindolin-5-yl)amino)octanoyl)-2-oxo-1-((1s,3s)-3-(piperidin-1-yl)cyclobutyl)spiro[indoline-3,4′-piperidin]-6-yl)-3-isopropyl-3H-imidazo[4,5-c]pyridin-4-yl)amino)-4-fluoro-N-isopropyl-2-methylbenzamide] it was < 45%; in that of `Cc1cc(F)c(Nc2nc(-c3ccc4c(c3)N([C@H]3C[C@@H](N5CCCCC5)C3)C(=O)C43CCN(C(=O)OC4CCN(C(=O)C5CCN(c6ccc7c(c6)C(=O)N(C6CCC(=O)NC6=O)C7=O)CC5)CC4)CC3)cc3ncn(C(C)C)c23)cc1C(=O)NC(C)C` (stereo partly drawn) [Example 55, 1-(1-{2-[2,6-dioxopiperidin-3-yl]-1,3-dioxoisoindol-5-yl}piperidine-4-carbonyl)piperidin-4-yl 6-(4-{[2-fluoro-5-(isopropylcarbamoyl)-4-methylphenyl]amino}-3-isopropylimidazo[4,5-c]pyridin-6-yl)-2-oxo-1-[(1s,3s)-3-(piperidin-1-yl)cyclobutyl]spiro[indole-3,4′-piperidine]-1′-carboxylate], > 65%.

As to `Cc1cc(F)c(Nc2nc(-c3ccc4c(c3)N([C@H]3C[C@@H](N5CCCCC5)C3)C(=O)C43CCN(C(=O)CCCCCCCCCNc4cccc5c4C(=O)N(C4CCC(=O)NC4=O)C5=O)CC3)cc3ncn(C(C)C)c23)cc1C(=O)NC(C)C` (stereo partly drawn) [Example 1, 5-((6-(1′-(10-((2-(2,6-dioxopiperidin-3-yl)-1,3-dioxoisoindolin-4-yl)amino)decanoyl)-2-oxo-1-((1s,3s)-3-(piperidin-1-yl)cyclobutyl)spiro[indoline-3,4′-piperidin]-6-yl)-3-isopropyl-3H-imidazo[4,5-c]pyridin-4-yl)amino)-4-fluoro-N-isopropyl-2-methylbenzamide], the Dmax is < 45%. In the case of `Cc1cc(F)c(Nc2nc(-c3ccc4c(c3)N([C@H]3C[C@@H](N5CCCCC5)C3)C(=O)C43CCN(C(=O)[C@H]4CC[C@@H](C(=O)N5CCC(Oc6cccc7c6C(=O)N(C6CCC(=O)NC6=O)C7=O)CC5)CC4)CC3)cc3ncn(C(C)C)c23)cc1C(=O)NC(C)C` (stereo partly drawn) [Example 96, 4-fluoro-N-isopropyl-5-[(3-isopropyl-6-{2-oxo-1-[(1s,3s)-3-(piperidin-1-yl)cyclobutyl]-1′-[(1s,4s)-4-[4-({2-[(3S)-2,6-dioxopiperidin-3-yl]-1,3-dioxoisoindol-4-yl}oxy)piperidine-1-carbonyl]cyclohexanecarbonyl]spiro[indole-3,4′-piperidin]-6-yl}imidazo[4,5-c]pyridin-4-yl)amino]-2-methylbenzamide] it was 45 to 65%; in that of `Cc1cc(F)c(Nc2nc(-c3ccc4c(c3)N([C@H]3C[C@@H](N5CCCCC5)C3)C(=O)C43CCN(C(=O)C4CCN(C(=O)C5CC(Nc6cccc7c6C(=O)N(C6CCC(=O)NC6=O)C7=O)C5)C4)CC3)cc3ncn(C(C)C)c23)cc1C(=O)NC(C)C` (stereo partly drawn) [Example 30, 4-fluoro-2-methyl-5-[(6-{2-oxo-1-[(1s,3s)-3-(piperidin-1-yl)cyclobutyl]-1′-[1-[(1s,3s)-3-({2-[2,6-dioxopiperidin-3-yl]-1,3-dioxo-2,3-dihydro-1H-isoindol-4-yl}amino)cyclobutanecarbonyl]pyrrolidine-3-carbonyl]-1,2-dihydrospiro[indole-3,4′-piperidin]-6-yl}-3-(propan-2-yl)-3H-imidazo[4,5-c]pyridin-4-yl)amino]-N-(propan-2-yl)benzamide], < 45%.

`Cc1cc(F)c(Nc2nc(-c3ccc4c(c3)N(C3CC(N5CCCCC5)C3)C(=O)C43CCN(C(=O)CN4CC5(CCN(c6ccc7c(c6)C(=O)N(C6CCC(=O)NC6=O)C7=O)CC5)C4)CC3)cc3ncn(C(C)C)c23)cc1C(=O)NC(C)C` (stereo not drawn) [Example 28, 5-[(6-{1′-[2-(7-{2-[2,6-dioxopiperidin-3-yl]-1,3-dioxo-2,3-dihydro-1H-isoindol-5-yl}-2,7-diazaspiro[3.5]nonan-2-yl)acetyl]-2-oxo-1-[(1s,3s)-3-(piperidin-1-yl)cyclobutyl]-1,2-dihydrospiro[indole-3,4′-piperidin]-6-yl}-3-(propan-2-yl)-3H-imidazo[4,5-c]pyridin-4-yl)amino]-4-fluoro-2-methyl-N-(propan-2-yl)benzamide]: the Dmax is < 45%.
